Columns and labels:
[1] = test system: RAD51 D184A, D187A NPFs; assay: EMSA of TR2 titration on RAD51 D184A, D187A NPFs; format: binding, human
Method: To assess RAD51 nucleoprotein (NPF) formation, wild-type and mutant RAD51 proteins were incubated with DNA in buffer: 25 mM HEPES pH 7.5, 150 mM NaCl, 2 mM DTT, 2 mM ATP, 5 mM CaCl2 for 15 minutes at room temperature. For filament binding of the TR2 peptide or His6-MBP-TR2 protein, the RAD51 NPFs were incubated with TR2 for further 5 minutes at room temperature. For filament binding of BRC4, the BRC4 peptide was pre-mixed with RAD51 for 10 minutes at room temperature before addition of DNA. For experiments with mono-streptavidin (mSA)-capped DNA, mSA (Sigma) was added in 5× molar excess of biotin labels for 15 minutes at room temperature prior to the addition of RAD51. Concentrations are provided in figures and DNA sequences for each experiment are reported in Supplementary Table 1.
Before electrophoresis, samples were mixed with a 0.5:1 volume of 50% (w/v) sucrose solution and analysed on a pre-run 0.5% (w/v) agarose gel in 0.5× TB buffer at 35 V for 2.5 hours at 4 °C. DNA was visualised by excitation of the fluorescent tag or, in the case of unlabelled DNA, by SYBR Gold staining. Gels were imaged in a Typhoon FLA9000 by excitation at 473 nm for fluorescein-labelled DNA or SYBR Gold-stained gels, 532 nm excitation for Cy3-labelled DNA or 635 nm excitation for Cy5-labelled DNA.
Supplementary table 1. DNA oligos and peptides
Oligos Size (nt) Sequence (5’ – 3’)
D184A […] (forward),
D184A, D187A […] (forward),
EMSA, SPR, CryoEM (micrographs,
Panels C, D (ssDNA) 60 FAM-[…]
Panels C, D (dsDNA) 60 FAM-[…],
Panels E, F (ssDNA) 60 Biotin-[…]
Panels E, F (dsDNA) 60 Biotin-[…],
Supplementary figs. 3, 4 (ssDNA) 60 Biotin-[…]
Supplementary figs. 3, 4 (dsDNA) 60 Biotin-[…],
Panel A (ssDNA) 32 Cy5-[…]
Panel B (dsDNA) 50 […]-Cy3,
Panel B (ssDNA) 60 Biotin-[…]-
Panel B (dsDNA) 60 Biotin,
Panel C (ssDNA) 32 Biotin-[…]-Biotin
Panel C (dsDNA) 50 Biotin-[…]-Cy3,
Supplementary fig. 5A 50 […]-Cy3,
Supplementary fig. 5B (ssDNA) 32 Cy5-[…]-Biotin,
Supplementary fig. 5B (ssDNA) 32 Biotin-[…]-Biotin
Supplementary fig. 5B (dsDNA) 50 Biotin-[…],
Panels B, C, D (ssDNA) 60 FAM-[…]
Panels F, G (ssDNA) 60 […]

[2] = test system: RAD51 NPFs on DNA capped at both ends with mSA; assay: EMSA of TR2 binding to RAD51 NPFs on mSA-capped DNA; set-up: species or system human; conditions: doubly-biotinylated ss- and dsDNA, mSA in 5× molar excess of biotin labels; SYBR Gold; two independent repeats
Description: (§1) To understand the structural basis for the association of the BRCA2 C-terminus with the RAD51 nucleoprotein filament, we sought to determine the structure of a RAD51-DNA-TR2 filament by high-resolution cryo-electron microscopy (cryoEM). […] Individual filaments within a bundle appeared to be in translational register relative to each other as it was possible to obtain well-resolved 2D classes of filament pairs (Supplementary fig. 5A, Supplementary Table 1). Filament aggregation induced by TR2 complicated picking of individual filament particles and prevented structural determination by cryoEM. We therefore sought to develop a method to prepare RAD51 NPFs in the presence of TR2 peptide without causing filament bundling. We reasoned that bundling might be alleviated by capping the DNA substrate with a bulky tag, to prevent filament aggregation by steric interference. We therefore prepared ss- and dsDNA substrates with a biotin tag at either one end or both ends, that could be bound by monomeric streptavidin (mSA) (Supplementary Fig. 5B, Supplementary Table 1).
Fig. 2 BRCA2 TR2 induces bundling of RAD51 nucleoprotein filaments. […]
Before electrophoresis, samples were mixed with a 0.5:1 volume of 50% (w/v) sucrose solution and analysed on a pre-run 0.5% (w/v) agarose gel in 0.5× TB buffer at 35 V for 2.5 hours at 4 °C. […]

[3] = test system: DNA; conditions: cited from earlier work
Description: Our cryoEM maps let us model a highly conserved portion of BRCA2 TR2 that spans residues F3289 to C3304. TR2 sequence conservation extends N-terminally to our model, up to K3263. […] Indeed, the bi ...

[4] = test system: RAD51 NPFs on mSA-capped DNA; assay: cryo-electron micrographs, bundling of RAD51 NPFs on mSA-capped DNA; set-up: species or system human; conditions: 1:0.5 molar ratio of TR2 peptide and mSA; ss- and dsDNA; two independent repeats
Description: as §1
Fig. 2 BRCA2 TR2 induces bundling of RAD51 nucleoprotein filaments. A Cryo-electron micrographs of RAD51 NPFs formed on ssDNA and dsDNA in the presence of 1:0.5 molar ratio of TR2 peptide. Extensive NPF aggregation into bundles of aligned filaments is clearly visible (examples marked with dashed white boxes). Two independent repeats. […]

DDQKNCKKRRALDFLSRLPLPPPVSPICTFVSPAAQKAFQPPRSCGTKY [TR2, BRCA2 TR2 peptide spanning amino acids 3260 to 3308]
residual TR2 binding ([1]; EMSA Fig. 1C, authors' response to reviewers): retain a degree of binding
reduction in TR2 binding, ssDNA versus dsDNA filaments ([1]; EMSA, ssDNA compared with dsDNA): especially pronounced for filaments formed on ssDNA
TR2 binding relative to wild-type ([1]; ss- and dsDNA, 25 mM HEPES pH 7.5, 150 mM NaCl, 2 mM ATP, 5 mM CaCl2, TR2 5 min, room temperature, ssDNA performed twice, dsDNA once): reduction in TR2 binding proportional to the decrease in charge at RAD51’s acidic patch
TR2 binding by RAD51 NPFs on mSA-capped DNA [2]: competent to bind the TR2 peptide
DNA-binding activity of TR2 [3]: harbours a DNA-binding activity centred on residues 3266-KKRR-3269
bundling of RAD51 NPFs on mSA-capped DNA [4]: no bundling in the presence of TR2

Source: paper PMC10622577, “Structural basis for stabilisation of the RAD51 nucleoprotein filament by BRCA2” (Nature Communications, 2023)
